Laboratory results reported in patent publication US20240300977A1, “INHIBITORS OF DNA-DEPENDENT PROTEIN KINASE AND COMPOSITIONS AND USES THEREOF” (Intellia Therapeutics, Inc., priority 2021, published 2024).
Where “and” joins values, the source holds several entries; their conditions need not be identical. Identical values can stand only once.

Columns and labels:
697 ALL cells (697-luc2) [1] = assay: WT1 TCR T cell mediated cytotoxicity, luciferase assay; type: cell-based, human; conditions: WT1-T cells (HD1) engineered with inhibitor, 48h, duplicate values
Protocol: (§1) The ability of WT1-TCR T cells engineered from donors 007HD and 008HD to kill hematological cancer cells expressing natural levels of WT1 and release cytokines was evaluated. TCR KO cells generated as described above but without TRAC/AAV addition were used as a negative, non-killing control. Briefly, T cells were co-cultured with luciferase expressing 697 ALL cells (697-luc2), or K562-luc2 cells transduced to express HLA-A*02:01 (K5692-HLA-A*02:01-luc2) at various effector to target (E:T) ratios (2:1, 1:1, 0.5:1) in TCEM without the addition of IL-2, IL-7, or IL-15. […] After 24h of co-culture, supernatants from the 2:1 E:T ratio group were harvested and used in an MSD U/R-PLEX assay to quantify IL-2, TNFα, IFNγ, and Granzyme B following manufacturers protocol (Mesoscale Discovery). After 48h of co-culture luciferase activity was quantified using the Bright-GLO Luciferase Assay System (Promega) in relative luminescence units (RLU). Percent specific lysis was determined using the formula:
(§2) % Specific Lysis=100−((RLU[Experimental Well]/RLU[Target Only Well])*100)

[2] = system: K562-luc2 cells transduced to express HLA-A*02:01; assay: as above; type: cell-based, human; conditions: WT1-T cells (HD1) engineered with inhibitor, K562-HLA-A*02:01, 48h, duplicate values
Protocol: as §1, §2

T cells [3] = assay: TRAC LNP editing and GFP insertion in activated T cells with DNA-PK inhibitors, flow cytometry; conditions: day 5 post-edit; for Mean % CD3^−/GFP+ Cells (n = 3): GFP positive of the CD3 negative T cells; for Mean % CD3^− Cells (n = 3): TRAC LNP + GFP AAV
697 ALL cells (697-luc2) [4] = assay: Cytokine release by WT1 TCR T cells, MSD U/R-PLEX; type: cell-based, human; set-up: unit not given here; conditions: 2:1 E:T, 24h supernatant, T cells engineered with inhibitor, duplicate values
Protocol: as §1, with “formula: […]” for “formula:”

[5] = system: K562-luc2 cells transduced to express HLA-A*02:01; assay: Cytokine release by WT1 TCR T cells, MSD U/R-PLEX; type: cell-based, human; set-up: unit not given here; conditions: K562-HLA-A2.1, 2:1 E:T, 24h supernatant, T cells engineered with inhibitor, duplicate values
Protocol: as §1, with “formula: […]” for “formula:”

T cells [6] = assay: Off-target structural variation by UnIT; type: cell-based, human; conditions: T cells from Example 12, day 8 post-editing; TRAC sgRNA G013006
From the text: (§3) On day 8 post-editing, T cells from Example 12 from the untreated, unedited, Compound 3 and Compound 4 guides samples were collected, spun down and the pellets were directly used as input material for gDNA isolation using “Zymo Quick DNA/RNA Mag Beads Kit” (Zymo Cat. R2131). The UnIT structural variant characterization assay was applied to these gDNA samples. High molecular weight genomic DNA is simultaneously fragmented and sequence-tagged (‘tagmented’) with the Tn5 transposase and an adapter with a partial Illumina P5 sequence and a 12 bp unique molecular identifier (UMI). Two sequential PCRs using a primer to P5 and hemi-nested gene specific primers (GSP) imparting the Illumina the P7 sequence to create two Illumina compatible NGS libraries per sample (Illumina, Ref 15033624). Sequencing across both directions of the CRISPR/Cas9 targeted cut site with the two libraries allows the inference and quantification of structural variants in DNA repair outcomes after genome editing. If the two fragments were aligned to different chromosomes, the SV was classified as an “inter-chromosomal translocation.” The magnitude of structural variation was shown in FIG. 9A and Table 18.

T cells [7] = assay: Insertion percent in T cells of Example 17; type: cell-based, human; conditions: T cells from Example 12; FIG. 9B
From the text: as §3

TRAC = conditions: human
TRBC = assay: Off-target site validation, rhAmpSeq; conditions: gRNA G016239 targeting TRBC; of 92 off-target sites; with the named DNA-PKI or none
T cells [8] = assay: Fold T cell expansion following TRBC/TRAC editing with WT1-TCR AAV and DNA-PK inhibitors; conditions: Table 4

## Cc1cc2ncnn2cc1Nc1ncc2c(n1)n(C1CCOCC1)c(=O)n2C [Compound 1, 7-methyl-2-((7-methyl-[1,2,4]triazolo[1,5-a]pyridin-6-yl)amino)-9-(tetrahydro-2H-pyran-4-yl)-7,9-dihydro-8H-purin-8-one]
697 ALL cells (697-luc2) [1]; E:T 0.5, donor 007HD
  Percent specific lysis: 12.14% and 5.54%
697 ALL cells (697-luc2) [1]; E:T 0.5, donor 008HD
  Percent specific lysis: 43.47% and 44.29%
697 ALL cells (697-luc2) [1]; E:T 1, donor 007HD
  Percent specific lysis: 29.28% and 30.44%
697 ALL cells (697-luc2) [1]; E:T 1, donor 008HD
  Percent specific lysis: 77.92% and 81.24%
697 ALL cells (697-luc2) [1]; E:T 2, donor 007HD
  Percent specific lysis: 65.54% and 61.43%
697 ALL cells (697-luc2) [1]; E:T 2, donor 008HD
  Percent specific lysis: 98.09% and 98.25%
[2]; E:T 0.5, donor 007HD
  Percent specific lysis: 37.10% and 36.80%
[2]; E:T 0.5, donor 008HD
  Percent specific lysis: 56.76% and 58.18%
[2]; E:T 1, donor 007HD
  Percent specific lysis: 69.32% and 70.95%
[2]; E:T 1, donor 008HD
  Percent specific lysis: 83.56% and 79.54%
[2]; E:T 2, donor 007HD
  Percent specific lysis: 95.40% and 92.50%
[2]; E:T 2, donor 008HD
  Percent specific lysis: 99.29% and 99.66%

## CCn1c(=O)n(C2CCOCC2)c2nc(Nc3cn4ncnc4cc3C)ncc21 [Compound 2, 7-ethyl-2-((7-methyl-[1,2,4]triazolo[1,5-a]pyridin-6-yl)amino)-9-(tetrahydro-2H-pyran-4-yl)-7,9-dihydro-8H-purin-8-one]
T cells [3]; compound 0.0625 uM
  Mean % CD3^−/GFP+ Cells (n = 3): 47.93%
T cells [3]; compound 1 uM
  Mean % CD3^−/GFP+ Cells (n = 3): 79.40%

## Cc1cc2ncnn2cc1Nc1ncc2c(n1)n(C1CCC(F)(F)CC1)c(=O)n2C [Compound 3, 9-(4,4-difluorocyclohexyl)-7-methyl-2-((7-methyl-[1,2,4]triazolo[1,5-a]pyridin-6-yl)amino)-7,9-dihydro-8H-purin-8-one]
697 ALL cells (697-luc2) [1]; E:T 0.5, donor 007HD
  Percent specific lysis: 4.60% and 2.72%
697 ALL cells (697-luc2) [1]; E:T 0.5, donor 008HD
  Percent specific lysis: 63.10% and 72.62%
697 ALL cells (697-luc2) [1]; E:T 1, donor 007HD
  Percent specific lysis: 39.43% and 30.39%
697 ALL cells (697-luc2) [1]; E:T 1, donor 008HD
  Percent specific lysis: 95.29% and 94.31%
697 ALL cells (697-luc2) [1]; E:T 2, donor 007HD
  Percent specific lysis: 77.64% and 65.49%
697 ALL cells (697-luc2) [1]; E:T 2, donor 008HD
  Percent specific lysis: 98.98% and 98.97%
[2]; E:T 0.5, donor 007HD
  Percent specific lysis: 47.03% and 41.52%
[2]; E:T 0.5, donor 008HD
  Percent specific lysis: 72.45% and 71.77%
[2]; E:T 1, donor 007HD
  Percent specific lysis: 78.53% and 75.83%
[2]; E:T 1, donor 008HD
  Percent specific lysis: 98.67% and 99.08%
[2]; E:T 2, donor 007HD
  Percent specific lysis: 98.79% and 96.99%
[2]; E:T 2, donor 008HD
  Percent specific lysis: 99.96% and 99.84%
697 ALL cells (697-luc2) [4]; donor 007HD
  Granzyme B: 1441.06 and 1664.25
  IFN-gamma: 923.97 and 977.71
  IL-2: 2.23 and 4.32
  TNF-alpha: 5.29 and 3.46
697 ALL cells (697-luc2) [4]; donor 008HD
  Granzyme B: 1777.28 and 1609.68
  IFN-gamma: 7169.43 and 6733.05
  IL-2: 8.1 and 7.14
  TNF-alpha: 18.57 and 16.3
[5]; donor 007HD
  Granzyme B: 17178.54 and 20713.6
  IFN-gamma: 41527.06 and 59686.42
  TNF-alpha: 66.56 and 73.76
[5]; donor 008HD
  Granzyme B: 17134.42 and 18197.02
  IFN-gamma: 200584.6 and 216197.4
  IL-2: 484.52 and 524.89
  TNF-alpha: 302.06 and 324.18
T cells [6]
  Unintended Structural Variance (Average): 1.30%
T cells [7]
  Insertion Percent (Average): 68.35%
TRAC
  Sites Validated: 0
TRBC
  Sites Validated: 0
T cells [3]; compound 0.0625 uM
  Mean % CD3^−/GFP+ Cells (n = 3): 75.50%
  Mean % CD3^− Cells (n = 3): 50.73%
T cells [3]; compound 1 uM
  Mean % CD3^−/GFP+ Cells (n = 3): 79.60%
  Mean % CD3^− Cells (n = 3): 58.90%

## Cc1cc2ncnn2cc1Nc1ncc2c(n1)n(C1CC(O)C1)c(=O)n2C (stereo not shown) [Compound 5, 9-(3-hydroxycyclobutyl)-7-methyl-2-((7-methyl-[1,2,4]triazolo[1,5-a]pyridin-6-yl)amino)-7,9-dihydro-8H-purin-8-one]
T cells [3]; compound 0.0625 uM
  Mean % CD3^−/GFP+ Cells (n = 3): 53.00%
T cells [3]; compound 1 uM
  Mean % CD3^−/GFP+ Cells (n = 3): 78.97%

## Cc1cc2ncnn2cc1Nc1cc2c(cn1)n(C)c(=O)n2C1CCOCC1 [Compound 6, 3-methyl-6-((7-methyl-[1,2,4]triazolo[1,5-a]pyridin-6-yl)amino)-1-(tetrahydro-2H-pyran-4-yl)-1,3-dihydro-2H-imidazo[4,5-c]pyridin-2-one]
T cells [8]
  impact of T cell expansion by DNA-PK treatment: no impact
T cells [3]; compound 0.0625 uM
  Mean % CD3^−/GFP+ Cells (n = 3): 35.10%
  Mean % CD3^− Cells (n = 3): 33.87%
T cells [3]; compound 1 uM
  Mean % CD3^−/GFP+ Cells (n = 3): 74.40%
  Mean % CD3^− Cells (n = 3): 58.30%

## Cc1cc2ncnn2c(C)c1Nc1cc2c(cn1)n(C)c(=O)n2C1CCOCC1 [Compound 7, 6-((5,7-dimethyl-[1,2,4]triazolo[1,5-a]pyridin-6-yl)amino)-3-methyl-1-(tetrahydro-2H-pyran-4-yl)-1,3-dihydro-2H-imidazo[4,5-c]pyridin-2-one]
T cells [8]
  impact of T cell expansion by DNA-PK treatment: no impact
T cells [3]; compound 0.0625 uM
  Mean % CD3^−/GFP+ Cells (n = 3): 29.90%
T cells [3]; compound 1 uM
  Mean % CD3^−/GFP+ Cells (n = 3): 43.43%

## Cc1cc2ncnn2c(C)c1Nc1ncc2c(n1)n(C1CCOCC1)c(=O)n2C [Compound 8, 2-((5,7-dimethyl-[1,2,4]triazolo[1,5-a]pyridin-6-yl)amino)-7-methyl-9-(tetrahydro-2H-pyran-4-yl)-7,9-dihydro-8H-purin-8-one]
T cells [8]
  impact of T cell expansion by DNA-PK treatment: no impact
T cells [3]; compound 0.0625 uM
  Mean % CD3^−/GFP+ Cells (n = 3): 32.23%
T cells [3]; compound 1 uM
  Mean % CD3^−/GFP+ Cells (n = 3): 70.07%

## Cc1cc2ncnn2cc1Nc1ncc2c(c1C)n(C1CCOCC1)c(=O)n2C [Compound 9, 3,7-dimethyl-6-((7-methyl-[1,2,4]triazolo[1,5-a]pyridin-6-yl)amino)-1-(tetrahydro-2H-pyran-4-yl)-1,3-dihydro-2H-imidazo[4,5-c]pyridin-2-one]
T cells [3]; compound 0.0625 uM
  Mean % CD3^−/GFP+ Cells (n = 3): 28.27%
T cells [3]; compound 1 uM
  Mean % CD3^−/GFP+ Cells (n = 3): 27.83%
